According to the supplement of paper PMC8967900:

Legend:
Assay in all cases: selective drug sensitivity score (sDSS, relative to normal bone marrow) (sDSS (score)); higher = more potent and effective on the cell line relative to normal bone marrow cells
Settings in all cases: 72 h
[1] = test system: MHH-CALL-4
[2] = test system: DND-41
[3] = test system: NALM-6
[4] = test system: PF-382
[5] = test system: KASUMI-2
[6] = test system: ALL-SIL
[7] = test system: NALL-1
[8] = test system: MOLT-4
[9] = test system: COG-LL-317
[10] = test system: COG-LL-332h
[11] = test system: JURKAT
[12] = test system: MHH-CALL-2
[13] = test system: KASUMI-10
[14] = test system: PEER
[15] = test system: LC4-1
[16] = test system: REH
[17] = test system: KASUMI-9
[18] = test system: KOPN-8
[19] = test system: HAL-01
[20] = test system: MHH-CALL-3
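Note: ALL cell lines in 384-well plates, five doses spanning 10,000-fold, each plate scaled between vehicle and 100 µmol/L benzalkonium chloride controls, sDSS an adapted area-under-curve metric.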

Structure (SMILES) | selective drug sensitivity score [1] | selective drug sensitivity score [2] | selective drug sensitivity score [3] | selective drug sensitivity score [4] | selective drug sensitivity score [5] | selective drug sensitivity score [6] | selective drug sensitivity score [7] | selective drug sensitivity score [8] | selective drug sensitivity score [9] | selective drug sensitivity score [10] | selective drug sensitivity score [11] | selective drug sensitivity score [12] | selective drug sensitivity score [13] | selective drug sensitivity score [14] | selective drug sensitivity score [15] | selective drug sensitivity score [16] | selective drug sensitivity score [17] | selective drug sensitivity score [18] | selective drug sensitivity score [19] | selective drug sensitivity score [20]
Cc1ccc(C(=O)N(CCCN)[C@@H](c2oc3cc(Cl)ccc3c(=O)c2Cc2ccccc2)C(C)C)cc1 (top concentration 100 nM) | 6.96 | -0.64 | 3.56 | 0.86 | 3.56 | 1.06 | 6.06 | 1.16 | 1.16 | 6.96 | 2.96 | 9.46 | 1.96 | 4.96 | 2.86 | 4.26 | 4.16 | 3.46 | 3.66 | -2.44
C[C@@H](Oc1ccc2[nH]nc(/C=C/c3cnn(CCO)c3)c2c1)c1c(Cl)cncc1Cl (top concentration 1000 nM) | -0.64 | 7.06 | 7.16 | -2.14 | -7.04 | 14.3 | -1.74 | -0.54 | -2.74 | 1.96 | -4.84 | -0.74 | 5.46 | 5.46 | 1.36 | -0.64 | -1.54 | -2.44 | 1.36 | -7.04
CCn1c(C(=O)N(C2CC2)C2CC2)cc2c3c(ncn3C)c(Nc3cc(C)n(C)n3)nc21 (top concentration 10000 nM) | -1.56 | -3.86 | -4.36 | -4.36 | -4.36 | -4.36 | 0.44 | -3.36 | -4.36 | -4.36 | -4.36 | 3.44 | -0.66 | -4.36 | -4.36 | -4.36 | 0.04 | -4.36 | 1.04 | -4.36
CNc1nc(-c2ccc3c(N)n[nH]c3c2)cc(N2C[C@@H](C(=O)NC3CCCCC3)CC[C@H]2C)n1 (top concentration 10000 nM) | 3.46 | 1.96 | 2.96 | 2.76 | 7.26 | 1.36 | -0.14 | -0.14 | -0.14 | -0.14 | -0.14 | 6.16 | 0.46 | -0.14 | 0.76 | 3.86 | 6.36 | 7.26 | -0.14 | -0.14
COc1ccc(Cn2ccc3ccc(C(=O)NO)cc32)cc1 (top concentration 10000 nM) | 0.64 | 2.94 | 1.54 | 1.84 | -1.06 | 2.64 | -0.86 | 1.44 | 13.7 | 8.14 | 2.84 | 6.24 | 3.14 | 2.24 | 4.54 | 2.54 | 2.24 | 8.74 | 5.84 | 1.74
N#Cc1ccc(COC[C@H]2O[C@@H](n3c(NCc4ccc(Cl)c(Cl)c4)nc4c(N)ncnc43)[C@H](O)[C@@H]2O)cc1 (top concentration 10000 nM) | -0.68 | 8.82 | 5.92 | 8.82 | -0.08 | 11.7 | -0.48 | 5.32 | 6.22 | 10.4 | 4.72 | 0.52 | -0.68 | 10.7 | 0.32 | 9.12 | -0.58 | 2.02 | 0.42 | 0.32
NC[C@@](O)(c1ccc(Cl)cc1)c1ccc(-c2cn[nH]c2)cc1 (top concentration 10000 nM) | 1.78 | -1.22 | 1.28 | 1.28 | 2.78 | -1.22 | -1.22 | -0.42 | 0.98 | 2.68 | 2.58 | 2.58 | -1.22 | 3.08 | 1.28 | 2.88 | 3.78 | 3.38 | 1.08 | 5.78
O=c1[nH]c(C2CCCN2)nc2c1oc1ccc(Cl)cc12 (stereo not given) (top concentration 10000 nM) | -1.2 | -1.1 | -0.4 | 2.4 | 7.2 | 0.6 | 0.8 | -2.8 | 3.3 | 6.7 | -2.8 | 1 | -2.7 | 0.3 | 1.8 | 0.3 | -1 | 8.1 | 0.2 | -0.7
NCC(=O)Nc1ccc(-n2nc(C(F)(F)F)cc2-c2ccc3c(ccc4ccccc43)c2)cc1 (top concentration 25000 nM) | 2.9 | 7.5 | 13.3 | 8 | 0.1 | 8.4 | 5 | 14.7 | 11.3 | 14.3 | 15.3 | 7.1 | 0 | 9.9 | 2.7 | 12.5 | 8.1 | 7.4 | 5.5 | -0.2
